{
  "source": "patent US4027039A",
  "about": "(priority 1975, dated 1977)",
  "key": {"[1]": {"test_system": "Influenza, Ann Arbor virus", "assay": "Influenza Ann Arbor in mice, oral; schedule by table; late read day 5 (Tables 15, 25, 29, 30), 6 (18, 20, 22, 23, 26, 27, 28, 54), 7 (14, 19, 21, 24, 53, 56), 8 (16, 17, 51), 9 (11, 55)", "format": "in vivo, mouse"}, "viral infections": {"test_system": "viral infections", "assay": "Antiviral screening in animals, general statements", "details": "mouse, in vivo"}, "[2]": {"test_system": "Influenza B Massachusetts virus", "assay": "Influenza B Mass. in mice, oral; late read day 5 (Table 39), 7 (Table 40), 11 (Tables 61, 65); control fraction 16/20 (Table 61), else 100%", "format": "in vivo, mouse", "protocol": "A portion of a commercially available sample of amantadine was recrystallized from isopropanol. The activity of the material against Influenza B Mass. was tested for the sample as obtained, the recrystallized portion, and the mother liquor obtained from recrystallizing the portion."}, "Influenza PR 8 virus": {"test_system": "Influenza PR 8 virus", "assay": "Influenza PR 8 in mice, oral; schedule by table; late read day 6 (Table 37), 7 (33, 36), 8 (32, 35, 47), 10 (38); control fraction 18/20 (Table 32), 19/20 (Table 35), else 100%", "format": "in vivo, mouse", "details": "of 41 tests"}, "[3]": {"test_system": "Influenza B Massachusetts virus", "details": "larger doses and different dose schedules, literature; cited from earlier work"}, "cells": {"test_system": "cells", "assay": "Plaque reduction and cytotoxicity in cells", "format": "cell-based", "from_the_text": "It is well known in virology that cells injured due to toxic substances will not support the growth of viruses."}, "polio and Vaccinia virus": {"test_system": "polio and Vaccinia virus", "details": "cytopathic effect; cited from earlier work"}, "Influenza A PR8 virus": {"test_system": "Influenza A PR8 virus", "parameters": "toxicity at upper limit: dose or concentration left out as unconfirmed", "details": "cited from earlier work"}, "[4]": {"test_system": "infectious canine hepatitis", "details": "50 mg/kg; cited from earlier work"}},
  "note": "Where two headings read alike, the source gives them in different places.",
  "data": [
    {"compound": "NC12CC3CC(CC(C3)C1)C2", "note": "[Commercial amantadine, amantadine, reference compound]", "values": [
      {"measurement": "occasions with survivors", "setting": "[1]; of 18 tests", "value": 5},
      {"measurement": "activity in words", "setting": "viral infections", "value": "inactive against all of the other viruses in the test system"},
      {"measurement": "No. animals surviving after 11 days", "setting": "[2]; total dose 60 ng", "value": 3},
      {"measurement": "No. animals surviving after 11 days", "setting": "[2]; total dose 600 ng", "value": 3},
      {"measurement": "Survivors", "setting": "[2]; total dose 600 ng", "value": 3},
      {"measurement": "No. animals surviving after 11 days", "setting": "[2]; total dose 6 μg", "value": 7},
      {"measurement": "Survivors", "setting": "[2]; total dose 6 μg", "value": 5},
      {"measurement": "No. animals surviving after 11 days", "setting": "[2]; total dose 60 μg", "value": 3},
      {"measurement": "Survivors", "setting": "[2]; total dose 60 μg", "value": 2},
      {"measurement": "No. animals surviving after 11 days", "setting": "[2]; total dose 600 μg", "value": 5},
      {"measurement": "Survivors", "setting": "[2]; total dose 600 μg", "value": 5},
      {"measurement": "No. animals surviving after 11 days", "setting": "[2]; total dose 6 mg", "value": 4},
      {"measurement": "Survivors", "setting": "[2]; total dose 6 mg", "value": 2},
      {"measurement": "instances of increased geometric mean survival time", "setting": "Influenza PR 8 virus", "value": 11},
      {"measurement": "statistically significant number of survivors in one single instance", "setting": "Influenza PR 8 virus", "value": 3},
      {"measurement": "effect against Influenza B Massachusetts", "setting": "[3]", "value": "ineffective"}
    ]},
    {"compound": "NN.O=S(=O)(O)O", "note": "[Hydrazine Sulfate, hydrazine sulfate]", "values": [
      {"measurement": "No. animals surviving after 6-9 days", "setting": "Herpes virus; total dose 5 μg", "value": 3},
      {"measurement": "No. animals surviving after 6-9 days", "setting": "Herpes virus; total dose .0005 μg", "value": 3},
      {"measurement": "No. animals surviving when 100% (or given fraction) of controls are dead", "setting": "Herpes virus; total dose .0005 μg", "value": 3},
      {"measurement": "Survivors", "setting": "Herpes virus; total dose .0005 μg", "value": 3},
      {"measurement": "No. animals surviving after 6-9 days", "setting": "Herpes virus; total dose .005 μg", "value": 4},
      {"measurement": "No. animals surviving when 100% (or given fraction) of controls are dead", "setting": "Herpes virus; total dose .005 μg", "value": 4},
      {"measurement": "Survivors", "setting": "Herpes virus; total dose .005 μg", "value": 4},
      {"measurement": "No. animals surviving after 6-9 days", "setting": "Herpes virus; total dose .05 μg", "value": 1},
      {"measurement": "No. animals surviving when 100% (or given fraction) of controls are dead", "setting": "Herpes virus; total dose .05 μg", "value": 1},
      {"measurement": "Survivors", "setting": "Herpes virus; total dose .05 μg", "value": 0},
      {"measurement": "No. animals surviving after 6-9 days", "setting": "Herpes virus; total dose .5 μg", "value": 3},
      {"measurement": "Survivors", "setting": "Herpes virus; total dose .5 μg", "value": 1},
      {"measurement": "toxic effects on the cells", "setting": "cells; 10 to 100 mg/ml", "value": "toxic effects on the cells were clearly evident"},
      {"measurement": "antiviral activity, plaque reduction", "setting": "cells; below the level of toxicity", "value": "no antiviral activity was demonstrated"},
      {"measurement": "concentrations with antiviral activity", "setting": "polio and Vaccinia virus", "value": "8 to 66", "unit": "µg/mL"}
    ]},
    {"compound": "CC(C=NNC(=N)N)=NNC(=N)N", "note": "[Methylgloxal-bis-guanylhydrazone]", "values": [
      {"measurement": "toxicity at upper limit", "setting": "Influenza A PR8 virus", "value": "toxic"},
      {"measurement": "inhibition", "setting": "Influenza A PR8 virus; lower limit, 0.125 mg per ml", "value": "Ninety"}
    ]},
    {"compound": "O=C(CCNNC(=O)c1ccncc1)NCc1ccccc1", "note": "[Nialamide, nialamide, reference compound]", "values": [
      {"measurement": "Survivors", "setting": "[1]; total dose 400 pg", "value": 1},
      {"measurement": "Survivors", "setting": "[1]; total dose 4 ng", "value": 1},
      {"measurement": "Survivors", "setting": "[1]; total dose 40 ng", "value": 0},
      {"measurement": "Survivors", "setting": "[1]; total dose 400 ng", "value": 0},
      {"measurement": "Survivors", "setting": "[1]; total dose 4 μg", "value": 0},
      {"measurement": "Survivors", "setting": "[1]; total dose 400 μg", "value": 2},
      {"measurement": "Survivors", "setting": "[1]; total dose 4 mg", "value": 1},
      {"measurement": "treated animals survived", "setting": "[4]", "value": "15 of 16"}
    ]}
  ]
}
